According to the supplement of paper PMC10627819:

Key:
[1] = system: S. aureus DSM 20231; test: Bliss interaction score (quartile over a dose matrix) (fitness difference); higher = more antagonism (negative = synergy)
How it was run: (§1)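 Each plate was normalised to the robust mean of its own no-drug wells, using OD595 at entry into stationary phase, with values capped at 1. This normalised growth is the fitness value. The Bliss score is the difference between observed and product-expected fitness, with single-drug fitness inferred from the combination data and quartiles taken over technical, biological and donor/recipient replicates.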

[2] = system: S. pneumoniae D39V; test: as above
How it was run: as §1

[3] = system: S. aureus Newman; test: as above
How it was run: as §1

[4] = system: B. subtilis 168; test: as above
How it was run: as §1

[5] = system: S. aureus DSM 20231; test: fitness (endpoint OD595 vs no drug) (fraction); higher = more growth
How it was run: (§2)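 Background-subtracted growth curves were the basis for fitness, taken as the optical density at entry into stationary phase over the robust mean of no-drug control wells. A cap of 1 was applied. The curves came from OD595 readings every 30 min for 14 h at 37 °C, in 384-well plates seeded at OD595 0.01 with 30 µl, or 55 µl for S. pneumoniae.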

[6] = system: S. pneumoniae D39V; test: as above
How it was run: as §2

[7] = system: S. aureus Newman; test: as above
How it was run: as §2

[8] = system: B. subtilis 168; test: as above
How it was run: as §2
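Throughout, for Bliss interaction score (quartile over a dose matrix): first quartile when negative (synergy) and third quartile when positive (antagonism).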

COc1ccc(C[C@H](N)C(=O)N[C@H]2[C@@H](O)[C@H](n3cnc4c(N(C)C)ncnc43)O[C@@H]2CO)cc1 [Puromycin] + CN1C2=CC=CC=C2N=C3C1=CC=CC3=O [Pyocyanin]
Settings	Bliss interaction score
[1]	0.0671
[2]	-0.117
[3]	0.104
[4]	-0.0765

fitness
Settings	first compound 0.39 µg/mL	first compound 0.78 µg/mL	first compound 1 µg/mL	first compound 1.56 µg/mL	first compound 2 µg/mL	first compound 4 µg/mL
[5], partner 1.25 µg/mL	0.86	0.945	–	≥ 1	–	–
[5], partner 2.5 µg/mL	0.96	0.957	–	0.967	–	–
[5], partner 5 µg/mL	0.67	0.725	–	0.681	–	–
[6], partner 0.325 µg/mL	–	–	0.977	–	0.975	0.792
[6], partner 0.65 µg/mL	–	–	0.926	–	0.866	0.697
[7], partner 1.25 µg/mL	0.907	0.902	–	0.918	–	–
[7], partner 2.5 µg/mL	0.785	0.824	–	0.845	–	–
[7], partner 5 µg/mL	0.476	0.44	–	0.417	–	–
[8], partner 1.25 µg/mL	0.879	0.847	–	0.89	–	–
[8], partner 2.5 µg/mL	0.875	0.812	–	0.823	–	–
[8], partner 5 µg/mL	0.679	0.666	–	0.656	–	–

one replicate
Settings	fitness
[5], first compound 3.12 µg/mL, partner 1.25 µg/mL	0.946
[5], first compound 3.12 µg/mL, partner 2.5 µg/mL	0.844
[5], first compound 3.12 µg/mL, partner 5 µg/mL	0.482
[5], first compound 6.24 µg/mL, partner 1.25 µg/mL	0.756
[5], first compound 6.24 µg/mL, partner 2.5 µg/mL	0.632
[5], first compound 6.24 µg/mL, partner 5 µg/mL	0.248
[6], first compound 1 µg/mL, partner 1.3 µg/mL	0.394
[6], first compound 2 µg/mL, partner 1.3 µg/mL	0.34
[6], first compound 4 µg/mL, partner 1.3 µg/mL	0.294

C[C@@H]1O[C@@H]1P(=O)(O)O [Fosfomycin] + Cc1onc(-c2ccccc2)c1C(=O)N[C@@H]1C(=O)N2[C@@H]1SC(C)(C)[C@@H]2C(=O)O [Oxacillin]
Settings	Bliss interaction score
[1]	-0.11
[2]	-0.154
[3]	-0.0668
[4]	-0.0577

Settings	fitness
[5], first compound 0.781 µg/mL, partner 0.0156 µg/mL	0.539
[5], first compound 0.781 µg/mL, partner 0.0312 µg/mL	0.504
[5], first compound 0.781 µg/mL, partner 0.0625 µg/mL	0.489
[5], first compound 1.562 µg/mL, partner 0.0156 µg/mL	0.442
[5], first compound 1.562 µg/mL, partner 0.0312 µg/mL	0.459
[5], first compound 1.562 µg/mL, partner 0.0625 µg/mL	0.362
[5], first compound 3.124 µg/mL, partner 0.0156 µg/mL	0.402
[5], first compound 3.124 µg/mL, partner 0.0312 µg/mL	0.335
[5], first compound 3.124 µg/mL, partner 0.0625 µg/mL	0.0751
[6], first compound 1.25 µg/mL, partner 0.005 µg/mL	≥ 1
[6], first compound 1.25 µg/mL, partner 0.01 µg/mL	0.996
[6], first compound 1.25 µg/mL, partner 0.02 µg/mL	0.916
[6], first compound 1.25 µg/mL, partner 0.04 µg/mL	0.3
[6], first compound 2.5 µg/mL, partner 0.005 µg/mL	0.982
[6], first compound 2.5 µg/mL, partner 0.01 µg/mL	0.913
[6], first compound 2.5 µg/mL, partner 0.02 µg/mL	0.843
[6], first compound 2.5 µg/mL, partner 0.04 µg/mL	0.181
[6], first compound 5 µg/mL, partner 0.005 µg/mL	0.85
[6], first compound 5 µg/mL, partner 0.04 µg/mL	0.0702
[7], first compound 0.781 µg/mL, partner 0.0156 µg/mL	0.606
[7], first compound 0.781 µg/mL, partner 0.0312 µg/mL	0.563
[7], first compound 0.781 µg/mL, partner 0.0625 µg/mL	0.49
[7], first compound 1.562 µg/mL, partner 0.0156 µg/mL	0.475
[7], first compound 1.562 µg/mL, partner 0.0312 µg/mL	0.421
[7], first compound 1.562 µg/mL, partner 0.0625 µg/mL	0.279
[7], first compound 3.124 µg/mL, partner 0.0156 µg/mL	0.145
[7], first compound 3.124 µg/mL, partner 0.0312 µg/mL	0.0796
[7], first compound 3.124 µg/mL, partner 0.0625 µg/mL	0.0515
[8], first compound 1.562 µg/mL, partner 0.002 µg/mL	0.65
[8], first compound 1.562 µg/mL, partner 0.004 µg/mL	0.696
[8], first compound 1.562 µg/mL, partner 0.008 µg/mL	0.568
[8], first compound 3.124 µg/mL, partner 0.002 µg/mL	0.566
[8], first compound 3.124 µg/mL, partner 0.004 µg/mL	0.546
[8], first compound 3.124 µg/mL, partner 0.008 µg/mL	0.51
[8], first compound 6.248 µg/mL, partner 0.002 µg/mL	0.358
[8], first compound 6.248 µg/mL, partner 0.004 µg/mL	0.33
[8], first compound 6.248 µg/mL, partner 0.008 µg/mL	0.281

fitness, [8], one replicate
Settings	partner 0.0078 µg/mL	partner 0.0155 µg/mL	partner 0.031 µg/mL	partner 0.075 µg/mL	partner 0.15 µg/mL	partner 0.3 µg/mL
first compound 1.562 µg/mL	0.807	0.835	0.797	0.339	0.0497	0.0455
first compound 3.124 µg/mL	0.663	0.68	0.613	0.164	0.0172	0.0362
first compound 6.248 µg/mL	0.548	0.531	0.504	0.0968	0.0104	0.0381
